Source: US9090632B2, “Bicyclic oxazole and thiazole compounds and their use as allosteric modulators of mGluR5 receptors” (Vanderbilt University, priority 2010, dated 2015)

Target: human mGluR5 (Homo sapiens, UniProt P41594)
Test: Cell-based functional Ca2+ mobilization assay, potentiation of glutamate EC20 response (H10H cell-line)
Conditions: H10H cell-line expressing recombinant human mGluR5; for Emax / Emax (%): in presence of glutamate EC20, normalized to maximal glutamate response; for EC50 / pEC50: potentiation in presence of glutamate EC20
Protocol: Human embryonic kidney (HEK) cells transfected with rat mGluR5 were plated in clear bottom assay plates for assay in a Functional Drug Screening System (FDSS). In the alternative assay, HEK cells transfected with human mGluR5 were plated for assay in the FDSS. In some cases the HEK cells transfected with human mGluR5 are the H10H cell line. Alternatively, the HEK cells transfected with human mGluR5 are the H12H cell line. […] The cells were loaded with a Ca^2+-sensitive fluorescent dye (e.g., Fluo-4), and the plates were washed and placed in the FDSS instrument. After establishment of a fluorescence baseline for about three seconds, the compounds of the present invention were added to the cells, and the response in cells was measured. Five minutes later, an mGluR5 agonist (e.g., glutamate, 3,5-dihydroxyphenylglycine, or quisqualate) was added to the cells, and the response of the cells was measured. Potentiation of the agonist response of mGluR5 by the compounds in the present invention was observed as an increase in response to non-maximal concentrations of agonist (here, glutamate) in the presence of compound compared to the response to agonist in the absence of compound.
The above described assay can be operated in two modes. In the first mode, a range of concentrations of the present compounds were added to cells, followed by a single fixed concentration of agonist. If a compound acted as a potentiator, an EC50 value for potentiation and a maximum extent of potentiation by the compound at this concentration of agonist was determined by non-linear curve fitting. In the second mode, several fixed concentrations of the present compounds were added to various wells on a plate, followed by a range of concentrations of agonist for each concentration of present compound; the EC50 values for the agonist at each concentration of compound were determined by non-linear curve fitting. A decrease in the EC50 value of the agonist with increasing concentrations of the present compounds (a leftward shift of the agonist concentration-response curve) is an indication of the degree of mGluR5 potentiation at a given concentration of the present compound. An increase in the EC50 value of the agonist with increasing concentrations of the present compounds (a rightward shift of the agonist concentration-response curve) is an indication of the degree of mGluR5 antagonism at a given concentration of the present compound. The second mode also indicates whether the present compounds also affect the maximum response to mGluR5 to agonists.
Human mGluR5a cDNA in pCMV6-XL6 mammalian expression plasmid was purchased from OriGene Technologies, Inc. (catalogue number SC326357) and subcloned into pcDNA3.1(−). Human embryonic kidney (HEK) 293A cells were then transfected with human mGluR5a pcDNA3.1(−) using LipofectAmine 2000 (Invitrogen) and monoclones were selected and tested for functional response using a Ca^2+ mobilization assay. Monoclones were named for the species (“H” for human) plus the location on the plate (e.g. “10H”).
HEK cells transfected with the human mGluR5a receptor were plated at 15,000 cells/well in clear-bottomed poly-D-lysine-coated assay plates (BD Falcon) in glutamate-glutamine-free growth medium and incubated overnight at 37° C. and 5% CO2. The cell-line used to obtain the data reported herein was the H10H cell-line expressing the human mGluR5 receptor. Although the H10H cell-line was used to obtain the data shown herein, the H12H cell-line expressing the human mGluR5 receptor can also be used in these assays. The following day, the growth medium was removed and the cells were washed with assay buffer containing 1× Hank's balanced salt solution (Invitrogen, Carlsbad, Calif.), 20 mM HEPES, 2.5 mM probenecid, pH 7.4 and left with 20 μL of this reagent. Following this step, the cells were loaded with calcium indicator dye, fluo-4 AM, to a final concentration of 2 μM and incubated for 40-45 min at 37° C. […]

Sequence of human mGluR5 (P41594 21-1180 isoform P41594-2 limits assumed): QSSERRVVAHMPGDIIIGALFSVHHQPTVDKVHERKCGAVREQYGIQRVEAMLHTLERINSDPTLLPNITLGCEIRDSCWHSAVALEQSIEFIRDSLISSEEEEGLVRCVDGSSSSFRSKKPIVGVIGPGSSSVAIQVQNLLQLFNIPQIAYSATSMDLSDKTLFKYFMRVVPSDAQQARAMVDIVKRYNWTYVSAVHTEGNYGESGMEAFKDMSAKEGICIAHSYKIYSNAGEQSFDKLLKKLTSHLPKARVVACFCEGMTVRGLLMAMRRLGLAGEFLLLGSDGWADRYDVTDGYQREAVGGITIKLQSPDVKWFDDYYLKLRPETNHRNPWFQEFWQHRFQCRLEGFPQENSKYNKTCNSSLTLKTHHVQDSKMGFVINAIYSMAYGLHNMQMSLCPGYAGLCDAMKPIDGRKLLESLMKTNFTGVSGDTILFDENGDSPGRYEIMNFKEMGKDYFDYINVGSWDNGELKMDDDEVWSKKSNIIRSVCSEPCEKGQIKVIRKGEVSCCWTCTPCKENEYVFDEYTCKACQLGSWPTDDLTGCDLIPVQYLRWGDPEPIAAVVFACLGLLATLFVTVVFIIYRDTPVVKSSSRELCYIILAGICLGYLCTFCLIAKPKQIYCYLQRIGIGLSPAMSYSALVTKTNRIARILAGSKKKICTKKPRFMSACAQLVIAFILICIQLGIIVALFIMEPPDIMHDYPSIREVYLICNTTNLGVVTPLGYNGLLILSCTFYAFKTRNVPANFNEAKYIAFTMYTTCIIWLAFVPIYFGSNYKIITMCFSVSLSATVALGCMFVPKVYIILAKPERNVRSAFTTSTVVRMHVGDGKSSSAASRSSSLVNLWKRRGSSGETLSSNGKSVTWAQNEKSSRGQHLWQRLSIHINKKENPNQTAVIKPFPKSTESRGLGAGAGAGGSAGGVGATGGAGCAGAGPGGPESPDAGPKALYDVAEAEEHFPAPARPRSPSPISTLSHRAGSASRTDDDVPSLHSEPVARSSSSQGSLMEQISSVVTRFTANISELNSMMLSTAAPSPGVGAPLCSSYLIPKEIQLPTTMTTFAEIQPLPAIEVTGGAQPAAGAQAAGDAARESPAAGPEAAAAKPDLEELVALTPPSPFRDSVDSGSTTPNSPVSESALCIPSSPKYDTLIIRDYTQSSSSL

Row | Emax [%] | EC50 [nM] | Emax (%) | pEC50 | Structure (SMILES) | mGluR5 activity type (footnote)
1 | 32 | > 10000 |  |  | Cc1cccc(OCc2nc3c(o2)CN(C(=O)c2ccc(F)cc2)CC3)n1 [Example B133] | 
2 |  |  | 69 | 6.60 | O=C(c1c[nH]c2ccccc12)N1CCc2nc(COc3ccccc3)oc2C1 [Example B117] | 
3 |  |  | 12 | <4.52 | O=C(c1cc2ccccc2[nH]1)N1CCc2nc(COc3ccccc3)oc2C1 [Example B112] | 
4 | 39 |  |  | >5 | O=C(c1n[nH]c2cccnc12)N1CCc2nc(COc3ccccc3)oc2C1 [Example B144] | 
5 |  |  | 43 | <5 | O=C(c1cnccn1)N1CCc2nc(COc3ccccc3)oc2C1 [Example B148] | 
6 |  |  | 16 | <4.52 | O=C(c1ncccn1)N1CCc2nc(COc3ccccc3)oc2C1 [Example B160] | 
7 | 10 | > 30200 |  |  | O=C(c1ccc(=O)[nH]c1)N1CCc2nc(COc3ccccc3)oc2C1 [Example B139] | 
8 |  |  | 27 | <4.52 | COCC(=O)N1CCc2nc(COc3ccccc3)oc2C1 [Example B138] | 
9 |  |  | 46 | <5 | O=C(c1cc[nH]n1)N1CCc2nc(COc3ccccc3)oc2C1 [Example B115] | 
10 | 36 | > 10000 |  |  | O=C(c1ccc(F)cc1)N1CCc2nc(COc3cnccn3)oc2C1 [Example B152] | 
11 |  |  | 23 | <4.52 | O=C(c1nccs1)N1CCc2nc(COc3ccccc3)oc2C1 [Example B159] | 
12 | 22 | > 10000 |  |  | Cc1noc(C(=O)N2CCc3nc(COc4ccccc4)oc3C2)n1 [Example B119] | 
13 | 36 | > 10000 |  |  | Cc1ncc(C(=O)N2CCc3nc(COc4ccccc4)oc3C2)cn1 [Example B135] | 
14 |  |  | 45 | <5 | Cc1cc(C(=O)N2CCc3nc(COc4ccccc4)oc3C2)no1 [Example B157] | 
15 | 49 | > 10000 |  |  | Cc1ccc(C(=O)N2CCc3nc(COc4ccccc4)oc3C2)cn1 [Example B132] | 
16 | 27 | > 30200 |  |  | O=C(c1ccc(F)cc1)N1CCc2nc(COc3ccc(Br)cc3)oc2C1 [Example B129] | 
17 | 50 | > 10000 |  |  | O=C(c1c[nH]c2cccnc12)N1CCc2nc(COc3ccccc3)oc2C1 [Example B145] | 
18 |  |  | 45 | <5 | N#Cc1cc(F)cc(OCc2nc3c(o2)CN(C(=O)c2ccc(F)cc2)CC3)c1 [Example B136] | 
19 |  |  | 58 | 5.77 | CC(C)(C)OC(=O)NC(C(=O)N1CCc2nc(COc3ccccc3)oc2C1)C(C)(C)C (stereo not drawn) [Example B140] | 
20 | 61 | 1200 |  |  | O=C(Cc1ccc(F)cc1)N1CCc2nc(COc3ccccc3)oc2C1 [Example B134] | 
21 |  |  | 37 | <5 | O=C(c1cnc(C(F)(F)F)nc1)N1CCc2nc(COc3ccccc3)oc2C1 [Example B118] | 
22 | 68 |  |  | 5.85 | O=C(c1n[nH]c2ccncc12)N1CCc2nc(COc3ccccc3)oc2C1 [Example B143] | 
23 | 73.5 | 66.1 |  |  | O=C(c1ccc(Cl)s1)N1CCc2nc(COc3ccccc3)oc2C1 [Example B109] | 
24 | 72 | 389 |  |  | O=C(c1n[nH]c2ccccc12)N1CCc2nc(COc3ccccc3)oc2C1 [Example B126] | 
25 | 24 | > 30200 |  |  | O=C(c1ccc(F)cc1)N1CCc2nc(CCc3ccccc3)oc2C1 [Example B131, 5-[(4-fluorophenyl)carbonyl]-2-(2-phenylethyl)-4,5,6,7-tetrahydro[1,3]oxazolo[5,4-c]pyridine] | 

Second part, the compound before the results:

Row | Structure (SMILES) | Emax [%] | EC50 [nM] | Emax (%) | pEC50 | mGluR5 activity type (footnote)
26 | CC(C)(C)C(=O)N1CCc2nc(COc3ccccc3)oc2C1 [Example B142] |  |  |  |  | **The indicated compound is a mGluR5 antagonist.
27 | N#Cc1cccc(OCc2nc3c(o2)CN(C(=O)c2ccc(F)cc2)CC3)c1 [Example B53] | 66.5 | 1260 |  |  | 
28 | Cc1ccc(C(=O)N2CCc3nc(COc4ccccc4)oc3C2)n1C [Example B103] |  |  | 78 | 6.44 | 
29 | Cc1cccnc1C(=O)N1CCc2nc(COc3ccccc3)oc2C1 [Example B42] |  |  | 58 | <5 | 
30 | O=C(c1cn[nH]c1)N1CCc2nc(COc3ccccc3)oc2C1 [Example B56] |  |  | 50 | <5 | 
31 | O=C(c1ccc(F)cc1)N1CCc2nc(COc3ccccc3)oc2CC1 [Example B4, 6-[(4-fluorophenyl)carbonyl]-2-(phenoxymethyl)-5,6,7,8-tetrahydro-4H-[1,3]oxazolo[4,5-d]azepine] | 76 | 3390 |  |  | 
32 | O=C(c1ccc(F)cc1)N1CCc2nc(COc3cncc(F)c3)oc2C1 [Example B48] |  |  | 62 | 5.49 | 
33 | O=C(c1ccccc1F)N1CCc2nc(COc3ccccc3)oc2C1 [Example B9] | 68 | 490 |  |  | 
34 | O=C(c1ccc(F)cc1)N1CCc2nc(COc3cccc(F)c3)oc2C1 [Example B8, 5-(4-fluorobenzoyl)-2-[(3-fluorophenoxy)methyl]-4,5,6,7-tetrahydro-oxazolo[5,4-c]pyridine] | 74 | 219 |  |  | 
35 | O=C(c1ccc(F)cc1)N1CCc2nc(COc3ccc(F)cc3)oc2C1 [Example B10] | 75 |  |  | 6.18 | 
36 | O=C(c1ccc(F)cc1)N1CCc2oc(COc3ccccc3)nc2C1 [Example B22] | 65 | 1620 |  |  | 
37 | Cc1cccc(OCc2nc3c(o2)CN(C(=O)c2ccc(F)cc2)CC3)c1 [Example B66] | 63 | 1200 |  |  | 
38 | O=C(c1ccc(F)cc1F)N1CCc2nc(COc3ccccc3)sc2C1 [Example B12] |  |  | 69 | 6.06 | 
39 | CC(C)(C)OCC(=O)N1CCc2nc(COc3ccccc3)oc2C1 [Example B55] | 14 |  |  |  | 
40 | Cc1cccc(C(=O)N2CCc3nc(COc4ccccc4)oc3C2)n1 [Example B44] |  |  | 64 | 5.7 | 
41 | O=C(c1cccc(F)c1)N1CCc2nc(COc3ccc(F)cc3)oc2C1 [Example B100] | 60.5 | 245 |  |  | 
42 | CC(C)(C#N)C(=O)N1CCc2nc(COc3ccccc3)oc2C1 [Example B62] | 34 | 339 |  |  | 
43 | O=C(c1ccc(F)cc1)N1CCc2nc(COc3ccccc3F)oc2C1 [Example B13] | 68 | 1150 |  |  | 
44 | O=C(c1ccncc1)N1CCc2nc(COc3ccccc3)oc2C1 [Example B19] | 69 | 4790 |  |  | 
45 | O=C(c1ccc2nccnc2c1)N1CCc2nc(COc3ccccc3)oc2C1 [Example B91] |  |  | 59 | 5.63 | 
46 | Cc1ccc(C(=O)N2CCc3nc(COc4ccccc4)oc3C2)o1 [Example B61] | 52.5 | 302 |  |  | 
47 | O=C(N1CCc2nc(COc3ccccc3)oc2C1)C1(c2ccccc2)CC1 [Example B77] |  |  | 62 | 6.00 | 
48 | O=C(c1ccc(F)cc1F)N1CCc2nc(COc3ccccc3)oc2C1 [Example B6] | 92 | 501 |  |  | 
49 | CC(C)(C)[C@H](N)C(=O)N1CCc2nc(COc3ccccc3)oc2C1 [Example B54] | 24 | 4170 |  |  | 
50 | O=C(c1ncco1)N1CCc2nc(COc3ccccc3)oc2C1 [Example B60] | 39.5 | 2000 |  |  | 
51 | O=C(c1cnco1)N1CCc2nc(COc3ccccc3)oc2C1 [Example B59] | 40.5 | 2950 |  |  | 
52 | O=C(c1c(F)cccc1F)N1CCc2nc(COc3ccccc3)oc2C1 [Example B16] | 82 | 372 |  |  | 
